Counter-ions that a name gives are not always drawn.
Tests used:
[1] = target: T1, farnesyl-protein transferase (FPTase) (Homo sapiens, UniProt P49354+P49356); experiment: in vitro FPTase inhibition, H-Ras as substrate for farnesylation; type: biochemical; settings: H-Ras used as substrate for farnesylation
Experimental: (§1) Enzyme test procedure: The FPTase inhibition in vitro assay was performed according to the method as described by James, G. L., Brown, M. S., and Goldstein, J. L., Methods in Enzymology, 1995, 255, 38-46; and Garcia, M. A., et al., J. Biol. Chem., 1993, 268, 18415-18420.
(§2) Materials—Purified FPTase (Moomaw, J. F. and Casey, P. J., J. Biol. Chem., 1992, 267, 17438-17443), purified His6-Ras, inhibitor compounds at 10 mg/ml or 10 mM in 100% DMSO, ^3H-FPP (50,000 dpm/pmol) Amersham, TCA/SDS (6%/2%), TCA (6%), Glass fiber filters ([…]), vacuum manifold or 96 well filtration plates.
(§3) Methods—1. Dilute FPTase inhibitors from stock solutions to 2.5× in 2.5% DMSO, 10 mM DTT, 0.5% octyl-B-glucoside. 2. Solution #1 is added to FPTase reaction in a volume of […]. 3. Standard reaction mix, […], contains 50 mM Tris (7.5),[…], 3 mM MgCl2, 20 mM KCl, 5 mM DTT, 0.2% octyl-B-glucoside, 1% DMSO, […], 10 ng FPTase, and various concentrations of FPTase inhibitors. 4. Incubate for 30-90 min at 25° C. 5. Stop reactions with TCA/SDS (6%/2%), hold at 4° C. for 45-60 min. 6. Filter by manifold or 96 well plate, wash filter 3-5× with TCA (6%). 7. Add scintillant to filters, measure ^3H-FPP incorporation into Ras protein.
(§4) Analysis of Results—Percent inhibition by test compounds is determined by the following:
(§5) (cpm from precipitated Ras with test compounds)−(background cpm)×100=% inhibition.
(§6) (cpm from precipitated Ras without test compounds)−(background cpm)

[2] = target: T1, farnesyl-protein transferase (FPTase); experiment: in vitro FPTase inhibition, K-Ras as substrate for farnesylation; type: biochemical; settings: K-Ras used as substrate for farnesylation
Experimental: as §1, §2, §3, §4, §5, §6

melting point | IC50 [1] | IC50 [2] | Compound
160 to 163 °C | – | – | Ic1ccc2c3c(cccc13)C(=NCc1ccccc1)N2 [Example 22, N-Benzyl-N-(6-iodobenzo[cd]indol-2(1H)-ylidene)amine]
– | 180 nM | – | Clc1ccc(CN2C(=NCCCn3ccnc3)c3cccc4cccc2c34)cc1 [Example 15, N-[1-[(4-Chlorophenyl)methyl]benz[cd]indol-2(1H)-ylidene]-1H-imidazole-1-propanamine]
– | 2800 nM | > 10000 nM | c1ccc(CN2C(=NCCCCn3ccnc3)c3cccc4cccc2c34)cc1 [Example 4, N-[1-(Phenylmethyl)benz[cd]indol-2(1H)-ylidene]-1H-imidazole-1-butanamine, Fumarate (1:2)]
– | 900 nM | – | Clc1ccc(CN2C(=NCCCn3ccnc3)c3cccc4c(I)ccc2c34)cc1 [Example 20, N-(1-(4-Chlorobenzyl)-6-iodobenzo[cd]indol-2-(1H)-ylidene)-3-(1H-imidazol-1-yl)-1-propanamine]
– | 400 nM | > 10000 nM | COc1cccc(CN2C(=NCCCn3ccnc3)c3cccc4cccc2c34)c1 [Example 13, N-[1-[(3-Methoxyphenyl)methyl]benz[cd]indol-2(1H)-ylidene]-1H-imidazole-1-propanamine]
185 to 188 °C | – | – | Ic1ccc2c3c(cccc13)C(=NCCCn1ccnc1)N2 [Example 21, 3-(1H-Imidazol-1-yl)-N-(6-iodobenzo[cd]indol-2(1H)-ylidene)-1-propanamine]
– | 100 nM | > 10000 nM | Clc1ccc2c3c(cccc13)C(=NCCc1cccnc1)N2Cc1ccccc1 [Example 19, N-[6-Chloro-1-(phenylmethyl)benz[cd]indol-2(1H)-ylidene]-3-pyridinethanamine]
– | 800 nM | > 10000 nM | Clc1ccc2c3c(cccc13)C(=NCCCn1ccnc1)N2Cc1ccccc1 [Example 18, N-[6-Chloro-1-(phenyl-methyl)benz[cd]indol-2(1H)-ylidene]-1H-imidazole-1-propanamine]
– | 1200 nM | 8000 nM | CCCCCCCCN(CCCn1ccnc1)C1=Nc2cccc3cccc1c23 [Example 1, N-[3-(1H-Imidazol-1-yl)-propyl]-N-octyl-benz[cd]indol-2-amine, Fumarate (1:2)]
– | 2000 nM | > 10000 nM | c1cncc(CN2C(=NCCCn3ccnc3)c3cccc4cccc2c34)c1 [Example 9, N-[1-(3-Pyridinylmethyl)benz[cd]indol-2(1H)-ylidene]-1H-imidazole-1-propanamine]
– | 6700 nM | – | Ic1ccc2c3c(cccc13)C(NCCCCn1ccnc1)=N2 [Example 2, N-[4-(1H-Imidazol-1-yl)-butyl]-6-iodo-benz[cd]indol-2-amine]
– | 2000 nM | > 10000 nM | c1cc2c3c(cccc3c1)C(N1CCC(Cn3ccnc3)CC1)=N2 [Example 17, 2-[4-(1H-Imidazol-1-ylmethyl)-1-piperidinyl]-benz[cd]indole, Monohydriodide]
– | 2500 nM | > 10000 nM | CN1C(=NCCCn2ccnc2)c2cccc3c(CO)ccc1c23 [Example 3, 1,2-Dihydro-2-[[3-(1H-imidazol-1-yl)propyl]imino]-1-methyl-benz[cd]indole-6-methanol, Fumarate (1:1)]
– | 320 nM | 4800 nM | N#CCCCCN1C(=NCCCn2ccnc2)c2cccc3cccc1c23 [Example 5, 2-[[3-(1H-Imidazol-1-yl)propyl]imino]-benz[cd]indole-1(2H)-pentanenitrile]
– | 1500 nM | – | c1ccc(OCCCN2C(=NCCCn3ccnc3)c3cccc4cccc2c34)cc1 [Example 12, N-[1-(3-Phenoxypropyl)benz[cd]indol-2-(1H)-ylidene]-1H-imidazole-1-propanamine, Dihydrochloride]
– | 1800 nM | > 10000 nM | CCCCCCN1C(=NCCCn2ccnc2)c2cccc3cccc1c23 [Example 7, N-(1-Hexylbenz[cd]indol-2(1H)-ylidene)-1H-imidazole-1-propanamine, Fumarate (1:2)]
– | 650 nM | – | c1ccc(CN2C(=NCCCn3ccnc3)c3cccc4cccc2c34)cc1 [Example 10, N-[1-(Phenylmethyl)benz[cd]indol-2(1H)-ylidene]-1H-imidazole-1-propanamine, Fumarate (1:2)]
– | 200 nM | 8500 nM | FC(F)(F)c1cccc(CN2C(=NCCCn3ccnc3)c3cccc4cccc2c34)c1 [Example 14, N-[1-[[3-(Trifluoromethyl)phenyl]methyl]benz[cd]indol-2(1H)-ylidene]-1H-imidazole-1-propanamine]
– | 2500 nM | > 10000 nM | c1ccc(N2C(=NCCCn3ccnc3)c3cccc4cccc2c34)cc1 [Example 16, N-(1-Phenylbenz[cd]indol-2(1H)-ylidene)-1H-imidazole-1-propanamine]
– | 600 nM | 9500 nM | c1ccc(CCCN2C(=NCCCn3ccnc3)c3cccc4cccc2c34)cc1 [Example 11, N-[1-(3-Phenylpropyl)benz[cd]indol-2(1H)-ylidene]-1H-imidazole-1-propanamine, Fumarate (1:2)]
– | 2250 nM | > 10000 nM | c1cc2c3c(cccc3c1)N(CCCN1C(=NCCCn3ccnc3)c3cccc4cccc1c34)C2=NCCCn1ccnc1 [Example 6, N,N′-[1,3-Propanediylbis(benz[cd]indol-1(2H)-yl-2-ylidene)]bis-1H-imidazole-1-propanamine]

Compound | melting point | IC50 [1] | IC50 [2]
N-(1-Hexylbenz[cd]indol-2(1H)-ylidene)-3-pyridinebutanamine, Fumarate (2:3) [Example 8] | – | 2400 nM | > 10000 nM

From US6403581B1, “Method of inhibition of farnesyl-protein transferase using substituted benz (cd) indol-2-imine and-amine derivatives” (American Cyanamid Company, priority 2000, dated 2002)
